Test results as given in ChEMBL document CHEMBL1777676, “3-substitued indoles: one-pot synthesis and evaluation of anticancer and Src kinase inhibitory activities” (Bioorg Med Chem Lett, 2011).

Key:
SK-OV-3 = test: Anticancer activity against human SKOV3 cells assessed as inhibition of cell proliferation at 50 uM after 72 hrs relative to control; format: functional; conditions: SK-OV-3, 72 h
[1] = target: Proto-oncogene tyrosine-protein kinase Src (Homo sapiens, UniProt P12931); test: Inhibition of c-Src using AEEEIYGEFEAKKKK substrate by fluorescence intensity assay
HT-29 = test: Anticancer activity against human HT-29 cells assessed as inhibition of cell proliferation at 50 uM after 72 hrs relative to control; format: functional; conditions: HT-29, 72 h

Proto-oncogene tyrosine-protein kinase Src, sequence (P12931 2-536 limits assumed): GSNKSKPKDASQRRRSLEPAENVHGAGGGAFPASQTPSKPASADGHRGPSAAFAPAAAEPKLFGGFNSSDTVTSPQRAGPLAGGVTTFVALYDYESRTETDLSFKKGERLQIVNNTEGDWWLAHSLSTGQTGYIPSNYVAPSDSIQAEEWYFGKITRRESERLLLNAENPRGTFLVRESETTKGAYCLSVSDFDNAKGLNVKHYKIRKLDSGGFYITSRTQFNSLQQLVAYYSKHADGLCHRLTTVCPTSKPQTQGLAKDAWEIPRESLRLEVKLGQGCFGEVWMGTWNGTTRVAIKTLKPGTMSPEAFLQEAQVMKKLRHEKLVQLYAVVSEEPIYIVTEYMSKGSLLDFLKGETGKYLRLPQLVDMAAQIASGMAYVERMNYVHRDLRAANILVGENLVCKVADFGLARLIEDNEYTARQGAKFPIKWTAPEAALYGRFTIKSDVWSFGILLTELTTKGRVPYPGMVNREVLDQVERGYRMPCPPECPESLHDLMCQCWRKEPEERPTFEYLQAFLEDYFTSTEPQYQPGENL

| SMILES | inhibition at 50 µM (SK-OV-3) [%] | IC50 [1] [µM] | inhibition at 50 µM (HT-29) [%] |
| --- | --- | --- | --- |
| CN(c1ccccc1)C(c1ccc(Cl)cc1)c1c[nH]c2ccccc12 (configuration not stated) | 72 | > 150 |  |
| Cc1ccc(C(c2c[nH]c3ccccc23)N(C)c2ccccc2)cc1 (configuration not stated) |  | > 150 |  |
| COc1ccc(C(c2c[nH]c3ccccc23)N(C)c2ccccc2)cc1 (configuration not stated) |  | > 150 |  |
| CN(c1ccccc1)C(c1ccccc1)c1c[nH]c2ccccc12 (configuration not stated) | 55 | 50.6 |  |
| CN(c1ccccc1)C(c1ccc(O)cc1)c1c[nH]c2ccccc12 (configuration not stated) |  | > 150 |  |
| CN(c1ccccc1)C(c1ccc(O)c(Br)c1)c1c[nH]c2ccccc12 (configuration not stated) |  | > 150 |  |
| COc1cccc(C(c2c[nH]c3ccccc23)N(C)c2ccccc2)c1 (configuration not stated) |  | > 150 |  |
| COc1ccc(C(c2c[nH]c3ccccc23)N(C)c2ccccc2)c(OC)c1 (configuration not stated) |  | > 150 |  |
| CN(c1ccccc1)C(c1ccccc1)c1cn(C)c2ccccc12 (configuration not stated) |  | > 150 |  |
| CN(c1ccccc1)C(c1ccc(Cl)cc1)c1cn(C)c2ccccc12 (configuration not stated) |  | 98.3 |  |
| Cc1ccc(C(c2cn(C)c3ccccc23)N(C)c2ccccc2)cc1 (configuration not stated) |  | 60.5 |  |
| CN(c1ccccc1)C(c1cccc([N+](=O)[O-])c1)c1c[nH]c2ccccc12 (configuration not stated) |  | 58.3 |  |
| CN(c1ccccc1)C(c1ccccc1)c1c[nH]c2ccc(Br)cc12 (configuration not stated) |  | 71.6 |  |
| COc1ccc(C(c2c[nH]c3ccc(OC)cc23)N(C)c2ccccc2)cc1 (configuration not stated) |  | 100 |  |
| COc1ccc2[nH]cc(C(c3ccc(C)cc3)N(C)c3ccccc3)c2c1 (configuration not stated) | 70 | > 150 | 70 |
| Cc1ccc(C(c2c[nH]c3ccc(Br)cc23)N(C)c2ccccc2)cc1 (configuration not stated) | 70 | > 150 | 70 |
| COc1ccc(C(c2c[nH]c3ccc(Br)cc23)N(C)c2ccccc2)cc1 (configuration not stated) | 70 | 106 | 70 |
| COc1ccc2[nH]cc(C(c3ccc(Cl)cc3)N(C)c3ccccc3)c2c1 (configuration not stated) | 77 | 87 |  |
